Data on seven substances can be found in patent US10197567B2, “Azoline compound and azole compound library and method for producing same” (The University of Tokyo, priority 2011, dated 2019).

Square brackets hold non-standard residues; d marks the D form. Ends that are not written are not given here. * marks the point of attachment. Dap = NC[C@H](N)C(=O)O; For = O=C*

For the assay, the system named is PatD. As to the kind of experiment: PatD enzyme reaction: introduction of azoline rings into substrate peptides, mass change read by MALDI-TOF-MS. The settings on record: for Dehydrated molecules: modification with PatD of synthesized substrates (Table 11-2). Format: biochemical, Prochloron didemni. As for the experimental part: After the DNA prepared in 3-2 was transcribed and translated in a cell-free protein expression system of 2.5 μl scale in accordance with the method of Kawakami, et al. (Kawakami et al., Chemistry & Biology 15, 32-42 (2008)) and the solution conditions were adjusted by adding 40 mM Tris-HCl (pH 8.0), 8 mM DTT, 4 mM MgCl2, and 0.8 mM ATP (each, final concentration), recombinant PatD was added.
The reaction was conducted under two conditions as described below.
The mass of the peptide was measured using MALDI-TOF-MS by using sinapinic acid as a matrix and whether a mass change occurred or not by the addition of PatD was checked. The number of azoline rings introduced can be found from the mass change.

In the case of “fMNKKNILPQQGQPVIRLTAGQLSSQLAELSEEALGDA-GLEAS-VXAX (X=Dap)-AYDGVEPS: PatD substrate with Dap in the cassette (For-MNKKNILPQQGQPVIRLTAGQLSSQLAELSEEALGDAGLEASV[Dap]A[Dap]AYDGVEPS)”, the Dehydrated molecules came out at 2. With “C1wt: PatE precursor peptide, leader-GLEAS-cassette-AYDGVEPS; cassette VTACITFC, same as wild type PatE (GLEASVTACITFCAYDGVEPS; An example of Recognition Sequence 1 based on Prochloron didemni.; Amino acid sequence of cassette region of wild type PatE; An example of Recognition Sequence 2 based on Prochloron didemni.)”, the “number of azoline rings introduced by PatD” value (modification with PatD, change in molecular weight by MALDI-TOF-MS) is reported as “four”. In the case of “Ac—LAELSEEALGDA-GGGGG-VXAXIXFX (X=Dap)-A: synthetic peptide significantly different from a natural substrate (FIG. 17) (Ac-LAELSEEALGDAGGGGGV[Dap]A[Dap]I[Dap]F[Dap]A)”, the Dehydrated molecules is recorded as 4. Turning to “PatEC1wt-GS: precursor peptide; cassette VTACITFC, recognition sequence 2 AYDGVGSGSGS (GLEASVTACITFCAYDGVGSGSGS; An example of Recognition Sequence 1 based on Prochloron didemni.; Amino acid sequence of cassette region of wild type PatE; An example of Recognition Sequence 2 based on Prochloron didemni.)”, where the note is “treated with PatD and Glu-C, leader sequence cleaved”, the “number of heterocycles in C-terminal short peptide” value is reported as “four”. “fMNKKNILPQQGQPVIRLTAGQLSSQLAELSEEALGDA-GLEAS-LCGCTSYCYTVS-AYDGV: PatD substrate: leader, recognition sequence 1, cassette, recognition sequence 2 (For-MNKKNILPQQGQPVIRLTAGQLSSQLAELSEEALGDAGLEASLCGCTSYCYTVSAYDGV; cysteine pairing not given here)” came in with a Dehydrated molecules of 2.

The substance “fMLAELSEEALGDA-GGGGG-VXAX (X=PhSer)-A: PatD substrate with shortened leader, GGGGG and PhSer in the cassette (For-MLAELSEEALGDAGGGGGV[PhSer]A[PhSer]A)” yielded a Dehydrated molecules of 1. As for “fMLAELSEEALGDA-GGGGG-VXAX (X=Dap)-A: PatD substrate with shortened leader, GGGGG and Dap in the cassette (For-MLAELSEEALGDAGGGGGV[Dap]A[Dap]A)”, the Dehydrated molecules worked out at 1.
